Values quoted from earlier work in patent publication US12102628B2, “Composition and methods for the treatment of myopia” (Seinda Pharmaceutical Guangzhou Corporation, priority 2017, dated 2024).
Like-named read-outs stand apart in the source and are kept apart here.

Key:
M3 receptor = M3 receptor (Homo sapiens, UniProt P20309); settings: M3 receptor-selective antagonists
[1] = not given; remark: listed apart in the source
myopic children = settings: for Myopia progression: myopic children
[2] = ophthalmic use, concentrations per Table 2

Chain of M3 receptor (P20309 whole entry): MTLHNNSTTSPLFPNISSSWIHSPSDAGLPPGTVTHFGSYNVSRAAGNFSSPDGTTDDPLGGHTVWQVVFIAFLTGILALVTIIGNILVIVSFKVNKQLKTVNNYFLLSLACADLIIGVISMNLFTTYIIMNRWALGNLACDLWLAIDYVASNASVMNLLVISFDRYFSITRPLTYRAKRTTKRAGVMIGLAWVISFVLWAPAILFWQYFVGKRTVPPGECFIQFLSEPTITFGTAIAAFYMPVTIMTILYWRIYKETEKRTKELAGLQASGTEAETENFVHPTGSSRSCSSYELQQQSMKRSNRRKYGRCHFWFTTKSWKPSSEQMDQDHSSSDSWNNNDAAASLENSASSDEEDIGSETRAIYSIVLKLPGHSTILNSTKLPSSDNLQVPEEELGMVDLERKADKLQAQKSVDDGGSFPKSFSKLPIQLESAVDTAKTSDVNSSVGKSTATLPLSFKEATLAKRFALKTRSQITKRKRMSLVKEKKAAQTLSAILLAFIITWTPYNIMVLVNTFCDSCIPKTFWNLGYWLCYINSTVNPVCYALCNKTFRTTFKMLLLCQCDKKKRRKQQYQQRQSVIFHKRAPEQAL

Compound | Aqueous Solubility [µg/mL] | logP [1] | Acting Duration [2] [days] | further results
c1ccc(C(O[C@@H]2CCCN(CCc3ccc4c(c3)OCO4)C2)c2ccccc2)cc1 [Zamifenacin] | 20 | 4.4 | – | Affinity (pKi) (M3 receptor): 9.3
CN1[C@@H]2CC[C@H]1C[C@@H](OC(=O)C(CO)c1ccccc1)C2 (stereo partly drawn) [Atropine, atropine] | – | – | 7 to 14 | Pupil dilation diameter (pupil; 0.05% atropine solution, control group 2.93 mm): 5.52 mm; Photophobia ratio (pupil; low concentration atropine group): about 66.67%; Effect on myopia progression (in words) (myopic children; 0.5% atropine solution): effectively slow the myopia progression; Myopia progression (myopic children; atropine concentration 0.1%): 0.47 diopter/yr; Myopia progression (myopic children; atropine concentration 0.25%): 0.45 diopter/yr; Myopia progression (myopic children; atropine concentration 0.5%): 0.04 diopter/yr
NC(=O)C(c1ccccc1)(c1ccccc1)[C@@H]1CCN(CCc2ccc3c(c2)CCO3)C1 [Darifenacin] | 6030 | 4.5 | – | –
CN1CCN(CC(=O)N2c3ccccc3C(=O)Nc3cccnc32)CC1 [Pirenzepine] | – | – | <1 | –
Tiotropium | 25000 | – | – | –
CN(C)CCOC(=O)C(c1ccccc1)C1(O)CCCC1 (stereo not drawn) [Cyclopentolate] | – | – | 4 | –
